This test addresses recombinant human GSK-3β (Homo sapiens, UniProt P49841). The experiment in a line: Measurement of GSK-3 enzyme activity inhibition (32P phosphorylation of phospho-glycogen synthase peptide-2). It is filed as biochemical. As to conditions: 20 μM ATP, 20 minutes at room temperature, read-out: GSK-3 enzyme inhibiting activity (IC50). As to the method: Measurement of GSK-3 Enzyme Activity Inhibition
After adding 25 μL of phospho-glycogen synthase peptide-2 substrate solution [6 μM phospho -glycogen synthase peptide-2, 20 μM ATP, 16 mM MOPS buffer (pH 7.0), 0.2 mM EDTA, 20 mM magnesium acetate, 0.1 μCi [γ-^32P]ATP (specific activity: approximately 110 TBq/mmol)]to 5 μL of the test compound using 5% dimethylsulfoxide as the solvent, reaction was initiated by further addition of 20 μL of a GSK-3β enzyme solution [10 mU recombinant human GSK-3β, 20 mM MOPS buffer (pH 7.0), 1 mM EDTA, 0.1% polyoxyethylene lauryl ether (23 Lauryl Ether; Brij 35), 5% glycerol, 0.1% β-mercaptoethanol]. After conducting the reaction for 20 minutes at room temperature, an equivalent volume of a 200 mM phosphoric acid solution was added to quench the reaction, and 90 μL of the reaction product was adsorbed onto a MultiScreen PH plate (Millipore) and rinsed with a 100 mM phosphoric acid solution. After drying the plate, 30 μL of Micro Scint-O (Packard BioScience) was added, and the cpm was measured with a scintillation counter to determine the inhibiting activity. Phospho GS Peptide2 is […]P)-Glu-Asp-Glu-Glu-Glu (SEQ ID NO:1).

Sequence of recombinant human GSK-3β (P49841 whole entry): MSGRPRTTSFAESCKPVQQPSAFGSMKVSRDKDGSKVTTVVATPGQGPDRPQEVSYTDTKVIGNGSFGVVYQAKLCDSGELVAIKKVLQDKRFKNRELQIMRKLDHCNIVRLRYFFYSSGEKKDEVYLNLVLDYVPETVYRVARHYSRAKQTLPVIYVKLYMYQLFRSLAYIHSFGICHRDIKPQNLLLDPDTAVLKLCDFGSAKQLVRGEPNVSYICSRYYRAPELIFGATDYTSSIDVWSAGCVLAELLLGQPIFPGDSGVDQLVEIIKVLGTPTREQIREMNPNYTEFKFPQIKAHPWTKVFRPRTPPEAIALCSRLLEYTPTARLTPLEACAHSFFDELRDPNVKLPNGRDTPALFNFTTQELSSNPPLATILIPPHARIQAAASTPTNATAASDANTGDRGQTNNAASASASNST

As usually defined, the IC50 is the concentration that inhibits the measured activity by half. `N#Cc1c(C2CC2)n(CCC(=O)O)c2c(=S)[nH]cnc12` [4-0092, 3-(7-cyano-6-cyclopropyl-4-thioxo-3-hydropyrrolo[3,2-d]pyrimidin-5-yl)propanoic acid]: the IC50 is 10 to 30 nM.

For the compound `N#Cc1c(NC2CC2)n(CCNC(=O)c2ccccc2)c2c(=S)[nH]cnc12` [6-0413, N-{2-[7-cyano-6-(cyclopropylamino)-4-thioxo(3-hydropyrrolo[3,2-d]pyrimidin-5-yl)]ethyl}benzamide], the IC50 lay in the range of 10 to 30 nM.

`CN(C)c1c(C#N)c2nc[nH]c(=S)c2n1CCNC(=O)c1ccc(F)cc1` [6-1029, N-{2-[6-(dimethylamino)-7-cyano-4-thioxo(3-hydropyrrolo[3,2-d]pyrimidin-5-yl)]ethyl}(4-fluorophenyl)carboxamide]: the IC50 is 30 to 100 nM.

On to `N#Cc1c(N2CCCC2)n(CCNC(=O)c2ccc(F)cc2)c2c(=S)[nH]cnc12` [6-1031, N-[2-(7-cyano-6-pyrrolidinyl-4-thioxo(3-hydropyrrolo[3,2-d]pyrimidin-5-yl))ethyl](4-fluorophenyl)carboxamide], for which the IC50 lay in the range of 30 to 100 nM.

(Values after patent US7528140B2, “Substituted pyrrolo[3,2-d]pyrimidines as glycogen synthase kinase (GSK) inhibitors” (Teijin Limited, priority 2002, dated 2009).)
